Experimental data as given in patent US4226885A, “Guanylhydrazones and medicaments containing them” (Choay S.A., priority 1977, dated 1980).
Like-named read-outs stand apart in the source and are kept apart here.

Experiments:
platelet aggregation = test: Platelet anti-aggregant action (BORN's method); format: cell-based, human or rabbit
Experimental: The determination of the platelet aggregability was effected according to BORN's method, using a LABINTEC aggregometer.
Firstly a platelet-rich plasma (or PRP) and next a platelet-poor plasma (or PPP or PDP) are prepared from human blood or rabbit's blood, and the apparatus is calibrated.
Then the aggregating power of the plasma (PRP) is determined in relation to the PDP in the presence and in the absence of guanyl hydrazone. Thus it is possible to determine the percentage of inhibition of platelet aggregation as a function of the concentration. The curves obtained permit of determining a pI 50. […]

Lipidium sativum = test: Inhibition of the growth of the root meristem of Lipidium sativum (vegetable cells); format: in vivo; settings: for inhibiting activity (root growth, in words): Lipidium sativum test
Experimental: The test of the inhibition of the growth of the root meristem of Lipidium sativum was used, which test is used to evaluate the cytostatic action of series of drugs. It consists in placing germinated grains of Lipidium sativum in 15 ml. of aqueous solution containing 1% of methyl cellulose, in which the guanyl hydrazones are placed in suspension.
After leaving in darkness for 24 hours at the temperature of 27° C., the elongation of the root in comparison with that of a control batch (Li Lipidium sativum grain in methyl cellulose medium) is determined.
The validity of the linear model was evaluated with the aid of test F: [formula]
In the example supplied, for the calculation of the confidence interval for α=0.05, one finds:
that is to say one has five chances per hundred, if one repeats another series of measurements, of finding a pI 50 outside this limit.

[1] = target: rat liver monoaminoxydase; test: I.M.A.O. activity: inhibition of rat liver monoaminoxydase (spectrophotometric, kynuramine as substratum); format: biochemical; settings: 50% inhibition
Experimental: The inhibiting activity of the envisaged guanyl hydrazones in relation to rat liver monoaminoxydase was determined by means of a spectrophotometric method, using kynuramine as substratum.
The I.M.A.O. activity was determined for various concentrations of guanyl hydrazone. The concentrations for which one obtains 50% inhibition relate to the pI 50, which is calculated as follows: […]
For each concentration about ten experiments are carried out, from which the mean activity Yi is determined. Only concentrations giving a Yi between 15 and 85% of activity are retained.
Assume N concentrations Ci retained; to each Ci there correspond a certain number ni of experiments and a mean activity Yi.
Assume in all NT=Σni experiments.
(a) The equation of the straight line Yi =f (Ci) is calculated by the method of least squares.
To this straight line there are attached different statistic tests to express its validity, as straight line only.
Then the corresponding concentration is deduced for Y=50%.
(b) Statistical calculations permit evaluation of the legitimacy of the linear model. These calculations take account of all the points, that is to say NT experiments, whereas the straight line is determined from the mean activities only, which means that these calculations take account of the dispersion which affects every average.
(c) Calculation of the confidence interval for α=0.05.
The pI50 s of the compounds 1 to 7 appearing in Table I above were calculated by application of the method as just described; they have been listed in Table II below: […]

[2] = tested on: fibro-sarcomas induced by methyl cholanthrene, tumour cells in culture; test: Tumour culture: inhibition of multiplication of methyl cholanthrene-induced fibro-sarcoma cells in vitro; format: cell-based; settings: Rattus norvegicus; for inhibition at 10 µM: 10^-5 molar; for inhibition at 1 µM: 10^-6 molar
Experimental: (§1) A supplementary study of the activity of these products upon the inhibition of growth of animal cells was effected by tumour culture. On fibro-sarcomas induced by methyl cholanthrene (O. Flandre et coll. C.R. Jour. biol. 1966. 160 152) the products were tested: upon tumour cells in culture "in vitro" and upon treated rats.
1. upon tumour cells in culture "in vitro" the results of the tested products are reported in Table IV below, which expresses the cellular count at the 72nd hour after sub-culture, in the presence of the substances to be studied.
The results are expressed in percentage of diminution of the number of cells in comparison with the control.
The determinations were effected with the products at three molar concentrations: 10^-4, 10^-5 and 10^-6.
This concerns fibro-sarcomas induced by methyl cholanthrene according to a technique described by O. FLANDRE, I. CIURANA, J. SECCHI and M. DAMON: Reports of the Sittings of the Biology Society, Volume 160, No. 1, 1966, page 152.
The products can be tested either upon tumour cells cultivated in vitro, or upon the rat treated by tumour cell injections either in situ or by intraperitoneal injection.
The preliminary experiments carried out with the substances according to the invention, tested on tumour cells cultivated in vitro, disclose a retardation of the cellular multiplication.

[3] = tested on: fibro-sarcoma induced by methyl cholanthrene; test: Development of a fibro-sarcoma induced by methyl cholanthrene in vivo in the rat; settings: daily 50 mg./kg in two doses, over three months, vs untreated rats
Experimental: as §1
2. Inhibiting action upon the development of a fibro-sarcoma induced by methyl cholanthrene "in vivo" in the rat.

Rat fibroblast cultures = test: Action upon cultures of trypsinised fibroblasts; format: cell-based; settings: read-out: percentage of inhibition in comparison with the control, heading: percentage of inhibition in comparison with the control, 10^-4 M, 48 and 72 hours
Experimental: Rat fibroblast cultures are concerned and the strains have been maintained for several years.
For single-layer cultivation in Roux flasks, Trypsinisation at 0.25% detaches the cells from the flask on the one hand and from one another on the other hand.
The cells are distributed in lamellated tubes at the rate of 250,000 cells per ml., where they are deposited.
The products to be tested are introduced at different dilutions, and left to act for 48 and 72 hours.
Next, the counting of the cells is effected (10 fields for 5 blades) and the results obtained are compared with control tumours which have not received the product to be tested.

[4] = tested on: rat embryo cultures (muscle fragment); test: Culture in explants: mitotic index of rat embryo cultures; format: cell-based
Experimental: This concerns rat embryo cultures kept for at least 6 months (muscle fragment). The explants are placed in culture in plasma coagulum (cock plasma). The cultures are fed with nutrient medium (Hanx+embryonary extract+decomplemented calf foetus serum). 24 hours after placing in plasma coagulum, the product to be tested is added at different dilutions. The cultures are examined on the 4th day and the counting of the number of mitoses is effected in the growth zone of the explants. The percentage of each of the phases of the mitosis is determined for the whole (mitotic index).

[5] = tested on: fibro-sarcomas induced by methyl cholanthrene, tumour cells in culture; test: Tumour culture: inhibition of multiplication of methyl cholanthrene-induced fibro-sarcoma cells in vitro; format: cell-based; settings: Rattus norvegicus, read-out: percentage of inhibition in comparison with the control; heading: percentage of inhibition in comparison with the control; B3 tumour culture, 10^-3 M
[6] = platelet-rich plasma, human blood or rabbit's blood, Table V, read-out: PI50 (platelet aggregation) (converted)
[7] = phenoxyacetic acid corresponding to the numbered guanyl hydrazone, root growth, read-out: Corresponding phenoxyacetic acid pI 50 (converted)
[8] = 50% inhibition of root growth, 24 hours, 27° C., darkness, read-out: pI 50 (guanyl hydrazones) (converted)
[9] = 72 h, 10^-4 molar, 72nd hour after sub-culture, read-out: percentage of diminution of the number of cells in comparison with the control
[10] = 72 h, 72nd hour after sub-culture, read-out: percentage of diminution of the number of cells in comparison with the control
[11] = concentration of 10^-4 mol, read-out: retardation of the cellular multiplication

N=C(N)NN=CCOc1ccc(F)cc1 [Compound 13]
IC50 (platelet aggregation; [6]): 977 µM

Cc1ccccc1OCC(=O)O [8 (corresponding phenoxyacetic acid), reference compound]
IC50 (Lipidium sativum; [7]): 11 µM

N=C(N)NN=CCOc1cccc(Cl)c1 [Compound 3]
pI 50 [1]: 4.70
IC50 (Lipidium sativum; [8]): 33.9 µM
inhibiting activity (root growth, in words) (Lipidium sativum): great inhibiting activity
inhibition at 100 µM [2, 9]: 31.6%
inhibition at 10 µM [2, 10]: 26.3%
inhibition at 1 µM [2, 10]: 0%
inhibition at 100 µM [2, 11]: > 30%
IC50 (platelet aggregation; [6]): 490 µM

Cc1ccccc1OCC=NNC(=N)N [Compound 8]
IC50 (Lipidium sativum; [8]): 38.9 µM
inhibiting activity (root growth, in words) (Lipidium sativum): great inhibiting activity
inhibition at 100 µM [2, 9]: 10.7%
inhibition at 10 µM [2, 10]: 7.89%
inhibition at 1 µM [2, 10]: 0%
IC50 (platelet aggregation; [6]): 525 µM

O=C(O)COc1ccccc1Cl [2 (corresponding phenoxyacetic acid), reference compound]
IC50 (Lipidium sativum; [7]): 112 µM

COc1cccc(OCC=NNC(=N)N)c1 [Compound 6]
pI 50 [1]: 5.16
IC50 (Lipidium sativum; [8]): 191 µM
inhibition at 100 µM [2, 9]: 18.4%
inhibition at 10 µM [2, 10]: 12.6%
inhibition at 1 µM [2, 10]: 0%

N=C(N)NN=CCOc1ccc(Br)cc1 [Compound 12]
IC50 (Lipidium sativum; [8]): 2.88 µM
inhibiting activity (root growth, in words) (Lipidium sativum): great inhibiting activity
inhibition at 100 µM [2, 9]: 57.1%
inhibition at 10 µM [2, 10]: 40.4%
inhibition at 1 µM [2, 10]: 0%
inhibition at 100 µM [2, 11]: > 30%
development of the tumours (weight estimations) [3]: clearly retarded
IC50 (platelet aggregation; [6]): 562 µM

Cc1ccc(OCC=NNC(=N)N)cc1 [Compound 10, p-methyl phenoxy acetaldehyde guanyl hydrazone]
IC50 (Lipidium sativum; [8]): 58.9 µM
inhibition at 100 µM [2, 9]: 25%
inhibition at 10 µM [2, 10]: 23.7%
inhibition at 1 µM [2, 10]: 0%
IC50 (platelet aggregation; [6]): 813 µM

CC(C)c1ccccc1OCC=NNC(=N)N [Compound 11]
IC50 (Lipidium sativum; [8]): 39.8 µM
inhibiting activity (root growth, in words) (Lipidium sativum): great inhibiting activity
inhibition at 100 µM [2, 9]: 78.6%
inhibition at 10 µM [2, 10]: 42.1%
inhibition at 1 µM [2, 10]: 18.4%
inhibition at 100 µM [2, 11]: > 30%
development of the tumours (weight estimations) [3]: clearly retarded
inhibition at 100 µM (Rat fibroblast cultures): ~100%
mitotic index ([4]; 4th day, control culture 2.5%): 1.9%
number of mitoses at the metaphase level ([4]; vs control culture): significant reduction of the number of mitoses at the metaphase level

COc1ccccc1OCC=NNC(=N)N [Compound 5, o-methoxy phenoxy acetaldehyde guanyl hydrazone]
pI 50 [1]: 4.94
IC50 (Lipidium sativum; [8]): 224 µM
inhibition at 100 µM [2, 9]: 5.26%
inhibition at 10 µM [2, 10]: 2.63%
inhibition at 1 µM [2, 10]: 0%
IC50 (platelet aggregation; [6]): 1100 µM

N=C(N)NN=CCOc1ccccc1Cl [Compound 2, o-chlorophenoxy acetaldehyde guanyl hydrazone]
pI 50 [1]: 4.94
IC50 (Lipidium sativum; [8]): 162 µM
inhibition at 100 µM [2, 9]: 15.8%
inhibition at 10 µM [2, 10]: 13.2%
inhibition at 1 µM [2, 10]: 7.89%
IC50 (platelet aggregation; [6]): 603 µM

O=C(O)COc1ccccc1 [1 (corresponding phenoxyacetic acid), reference compound]
IC50 (Lipidium sativum; [7]): 631 µM

N=C(N)NN=CCOc1ccccc1 [Compound 1]
pI 50 [1]: 4.90
IC50 (Lipidium sativum; [8]): 692 µM
inhibition at 100 µM [2, 9]: 15.8%
inhibition at 10 µM [2, 10]: 7.89%
inhibition at 1 µM [2, 10]: 5.26%
IC50 (platelet aggregation; [6]): 1200 µM
inhibition at 1000 µM [5]: ~25%

Cc1cccc(OCC=NNC(=N)N)c1 [Compound 9]
IC50 (Lipidium sativum; [8]): 26.3 µM
inhibiting activity (root growth, in words) (Lipidium sativum): great inhibiting activity
inhibition at 100 µM [2, 9]: 32.1%
inhibition at 10 µM [2, 10]: 13.2%
inhibition at 1 µM [2, 10]: 10.5%
inhibition at 100 µM [2, 11]: > 30%
IC50 (platelet aggregation; [6]): 692 µM

CC(=O)Oc1ccccc1C(=O)O [Lysine acetylsalicylate, reference compound]
IC50 (platelet aggregation; Platelet, read-out: PI50 (platelet aggregation)): 51300 µM

COc1ccc(OCC=NNC(=N)N)cc1 [Compound 7]
pI 50 [1]: 4.50
IC50 (Lipidium sativum; [8]): 102 µM
inhibition at 100 µM [2, 9]: 15.8%
inhibition at 10 µM [2, 10]: 15.3%
inhibition at 1 µM [2, 10]: 0%
IC50 (platelet aggregation; [6]): 1380 µM
